# From the supplement of paper PMC7801607
# Experiments:
# [1] = tested on: Plasmodium berghei ANKA liver stage in HepG2-A16-CD81
# [2] = tested on: Plasmodium falciparum Dd2 asexual blood stage
# [3] = tested on: Plasmodium falciparum NF54 asexual blood stage
# [4] = tested on: Plasmodium falciparum NF54 stage IV/V gametocytes
# Description: (§1)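 Dose-response IC50s: P. falciparum NF54 asexual (pLDH, 72 h; 6 means >6 µM), Dd2 asexual (SYBR Green I, 72 h, 1536-well; 5 means >5 µM), NF54 stage IV/V gametocytes (luciferase 48 h, ATP 24 h, PrestoBlue 48 h), P. berghei liver stage in HepG2-A16-CD81 (luciferase, 48 h; 5 means >5 µM), HepG2 CC50 (CellTiter-Glo; 5 means >5 µM).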
# [5] = tested on: Plasmodium falciparum NF54 stage IV/V gametocytes; remark: listed apart in the source
# Description: as §1
# HepG2-A16-CD81 = test: CC50; higher = less toxic
# Description: as §1
SMILES,IC50 [1] [nM],IC50 [2] [nM],IC50 [3] [nM],IC50 (ATP bioluminescence) [4] [nM],IC50 (luciferase reporter) [5] [nM],CC50 (HepG2-A16-CD81) [nM]
Clc1cc(Cl)c2c(c1)CCc1ccccc1C2n1ccnc1 (stereo unspecified),> 5000,3380,1480,4230,7650,> 5000
N=C(N)NCCCCC(=O)Nc1cc(C(F)(F)F)cc(NC(=O)c2cc(C(=O)Nc3cc(C(F)(F)F)cc(NC(=O)CCCCNC(=N)N)c3O[C@@H]3CCNC3)ncn2)c1O[C@@H]1CCNC1,–,3360,2210,–,6070,–
CCN(CC)CCn1c(=N)n(CC(O)COc2ccc(Cl)cc2Cl)c2ccccc21 (stereo unspecified),> 5000,792,678,350,3800,> 5000
N#Cc1c(F)c(Cl)c(NCc2ccccc2)c(C#N)c1F,–,> 5000,> 6000,–,31600,–
CC(C)(C)c1ccc(Oc2ccc(N)cc2)cc1,–,> 5000,–,–,1080,–
CCOC(=O)Nc1cc(NC(C)CC(C)CN(CC)CC)c2nc(-c3ccccc3)c(-c3ccccc3)nc2n1 (stereo unspecified),–,4050,–,4260,28600,–
Cc1nc2ccc(Oc3ccccc3)cc2c2c1CCN2CCc1ccccc1,–,> 5000,3010,1130,46300,–
Oc1cccc(C(Nc2nccs2)c2ccc3cccnc3c2O)c1 (stereo unspecified),–,> 5000,3460,5020,15900,–
CN(C)CCCOc1ccc(-c2ccc3ncc4c(c3c2)n(C2CCOCC2)c(=O)n4C)cn1,1060,776,4000,–,1670,> 5000
O=C(/C(=C/c1ccc(Cl)cc1Cl)n1ccnc1)c1ccc(Cl)cc1,–,3320,2630,824,7080,–
COc1cc(C)c2c(Oc3cccc(C(F)(F)F)c3)c(OC)cc(NC(C)CCCN)c2n1 (stereo unspecified),3340,506,940,1400,7690,> 5000
CC[C@H](NC(=O)[C@H](C)NC)C(=O)N1C[C@@H](O)C[C@H]1Cc1c(-c2[nH]c3cc(F)ccc3c2C[C@@H]2C[C@H](O)CN2C(=O)[C@H](CC)NC(=O)[C@H](C)NC)[nH]c2cc(F)ccc12,128,236,986,1530,5210,> 5000
N=c1n(CCN2CCCCC2)c2ccccc2n1CC(O)COc1ccc(Cl)cc1Cl (stereo unspecified),2790,831,1070,340,3820,> 5000

# The next lines start with results.
IC50 [1] [nM],IC50 [2] [nM],IC50 [3] [nM],IC50 (ATP bioluminescence) [4] [nM],IC50 (luciferase reporter) [5] [nM],SMILES,CC50 (HepG2-A16-CD81) [nM]
> 5000,51.6,383,2910,7640,CCC(C)NCC(O)Cn1c2ccc(Cl)cc2c2cc(Cl)ccc21 (stereo unspecified),> 5000
–,3150,1670,–,5400,Oc1c(C(Nc2nc3ccccc3s2)c2ccc(OC(F)F)cc2)ccc2cccnc12 (stereo unspecified),–
2510,1900,1390,1660,–,CN1CCN(Cc2ccc(-c3cnc4[nH]cc(-c5ccc6[nH]ccc6c5)c4c3)cc2)CC1,> 5000
> 5000,19.4,44.8,–,480,O=C(Nc1cccc(C2=NCCN2)c1)c1ccc(-c2ccc(C(=O)Nc3cccc(C4=NCCN4)c3)cc2)cc1,> 5000
–,> 5000,–,–,30600,O=C(Nc1ccc(F)cc1)c1nn(-c2ccccc2)c(=O)cc1Cl,–
> 5000,50.6,30.1,–,–,CCN(CC)CCCC(C)Nc1ccnc2cc(Cl)ccc12 (stereo unspecified),> 5000
> 5000,2850,878,–,–,CC(C)/N=c1\cc2n(-c3ccc(Cl)cc3)c3ccccc3nc-2cc1Nc1ccc(Cl)cc1,> 5000
> 5000,2050,> 6000,–,–,COc1nc2ccc(Br)cc2cc1[C@@H](c1ccccc1)[C@@](O)(CCN(C)C)c1cccc2ccccc12,> 5000
> 5000,22,149,–,–,CN1CCN(c2ccc3[nH]c(-c4ccc5[nH]c(-c6ccc(O)cc6)nc5c4)nc3c2)CC1,> 5000
–,> 5000,–,2160,25700,O=C1C=C(c2ccccc2)S(=O)(=O)c2ccccc21,–
> 5000,55,49.5,79.9,152,Nc1nc(Nc2ccc3nc(-c4ccc(F)cc4)cc(N)c3c2)cc(-c2ccccc2)n1,> 5000
–,> 5000,> 6000,496,4030,Cc1cccc(C)c1C(=O)Nc1nc(-c2ccccn2)cc2ccccc12,–
1990,69.4,62.1,–,103,Cn1cc(NC(=O)c2cc(NC(=O)c3ccc(/C=C/c4cnc5ccccc5c4)cc3)cn2C)cc1C(=O)NCCN1CCOCC1,> 5000
56.1,7,58.5,–,–,Cc1[nH]c2ccccc2c1CCNCc1ccc(/C=C/C(=O)NO)cc1,141
642,1280,1640,–,–,NC(=S)N/N=C/c1ncccc1N,> 5000
–,> 5000,–,–,3920,C(=C\c1nc2ccccc2[nH]1)/c1ccc2c(c1)OCO2,–
–,> 5000,–,–,11400,CCOc1ccc(C(=O)NCCc2ccccc2)cc1,–
2170,23,109,824,1030,CCCCC(CC)CNC(=N)NC(=N)NCCCCCCNC(=N)NC(=N)NCC(CC)CCCC (stereo unspecified),4140
